The target in one test is T1, GPR84 (Homo sapiens, UniProt Q9NQS5).
T1 construct: expressed in transfected cells
The test is described as follows: GPR84 [35S]GTPγS binding assay. Conditions: 3,3′-diindolylmethane at EC80; membranes from stable cell line over expressing GPR84. The test is classed as biochemical. In outline: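 Antagonist-mode [35S]GTPγS binding on membranes from a GPR84-overexpressing stable line (GDP-preincubated), stimulated with 3,3′-diindolylmethane at EC80. Buffer 20 mM Tris pH 7.5, 5 mM MgCl2, 250 mM NaCl, saponin; 0.1 nM [35S]GTPγS, 90 min at room temperature, SPA bead read-out.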

The next test has as its system human neutrophils. The test is described as follows: Human neutrophil migration assay. Conditions: Homo sapiens, Neutrophil, read-out: Human neutrophil migration IC50. In kind it is cell-based. As for the experimental part:
The activity of GPR84 agonists and antagonists can therefore be assayed in a human neutrophil migration assay. The human neutrophil migration assay makes use of freshly isolated human neutrophils from buffy coats that are subsequently used in a functional chemotaxis assay setup. […] After 1 h of incubation at 37° C. and 5% CO2, the number of migrated neutrophils in the lower compartment can be quantified by measuring the ATP content using ATPlite™ Luminescence Assay System. A human buffy coat suspension is diluted with an equal volume of ice cold DPBS. 20 mL of the diluted buffy coat suspension is gently mixed with 4 mL of ACD buffer (140 mM citric acid, 200 mM sodium citrate and 220 mM dextrose). Then, 12 mL of a 6% dextran/0.9% NaCl solution (15 g dextran T2000 and 2.25 g NaCl dissolved in 250 mL H2O) is added to the mixture and the samples are inverted gently up to 20 times. The total volume is transferred to a new recipient and incubated at room temperature to allow sedimentation of red blood cells. The yellowish upper fraction is then transferred to a clean centrifugation tube and centrifuged for 12 min at 1300 rpm and 4° C. After centrifugation, the supernatant is discarded and the remaining cell pellet is rapidly resuspended in 12 mL of ice-cold H2O to perform a red blood cell lysis by osmotic burst. After 20 seconds, 4 mL of ice-cold 0.6 M KCl is added to restore salt concentration. Samples are mixed carefully and centrifuged for 6 min at 1300 rpm and 4° C. The supernatant is discarded and the red blood cell lysis procedure is repeated one more time. […] A neutrophil cell suspension of 8.9×10^6 cells per mL is prepared in chemotaxis buffer and 180 μL per well is plated in a 96-well V-bottom plate. 20 μL of test compound solution in chemotaxis buffer is added to the 180 μL cell suspension. The mixture is incubated at room temperature for 30 min with intermediate gentle resuspension of the cells after 15 min. […] After 1 h at 37° C., 5% CO2 in a humidified incubator, the upper plate of the Transwell® system is gently removed. […] After incubation, 270 μL of cell lysate is then transferred onto a white 96-well plate for quantification by a luminescence plate reader. The relative luminescent signal measured is considered linearly related to the number of cells having migrated from the upper compartment into the receiver well.

The mark [1] stands for this setting: embelin at EC80 as chemotactic agent, 1 h at 37° C.

These results are taken from patent publication US10568879B2 (GALAPAGOS NV, priority 2015, dated 2020).

Read-outs that look alike come from different tables or passages of the source.

T1 sequence (Q9NQS5 whole entry): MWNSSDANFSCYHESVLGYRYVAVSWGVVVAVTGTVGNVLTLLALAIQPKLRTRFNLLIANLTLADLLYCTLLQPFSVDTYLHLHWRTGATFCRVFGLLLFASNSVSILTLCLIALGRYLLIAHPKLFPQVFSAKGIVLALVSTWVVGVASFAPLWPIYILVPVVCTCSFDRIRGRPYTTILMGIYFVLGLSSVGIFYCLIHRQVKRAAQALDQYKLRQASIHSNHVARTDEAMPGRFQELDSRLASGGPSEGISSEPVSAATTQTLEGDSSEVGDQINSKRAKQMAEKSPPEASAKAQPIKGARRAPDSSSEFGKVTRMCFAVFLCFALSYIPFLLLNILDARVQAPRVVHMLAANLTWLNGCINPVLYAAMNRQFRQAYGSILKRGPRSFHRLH

As to `COc1ccc2c(c1OC)CCn1c(OCC3CCCCO3)cc(=O)c(C)c1-2` (stereo not drawn) [Compound 29, 8,9-dimethoxy-1-methyl-4-(tetrahydropyran-2-ylmethoxy)-6,7-dihydrobenzo[b]quinolizin-2-one], the IC50 on GPR84 and in the test on human neutrophils (setting [1]) was 0.01 to 100 nM throughout.

On to `Cc1c2n(c(OC[C@@H]3COCCO3)cc1=O)CCc1cc(OCC3CCOCC3)ccc1-2` [Compound 30, 4-[[(2S)-1,4-dioxan-2-yl]methoxy]-1-methyl-9-(tetrahydropyran-4-ylmethoxy)-6,7-dihydrobenzo[b]quinolizin-2-one], for which the IC50 at GPR84 and in the test with human neutrophils (setting [1]) was 0.01 to 100 nM each time.

As to `Cc1c2n(c(OC[C@@H]3COCCO3)cc1=O)CCc1cc(OCc3ccccn3)ccc1-2` [Compound 31, 4-[[(2S)-1,4-dioxan-2-yl]methoxy]-1-methyl-9-(2-pyridylmethoxy)-6,7-dihydrobenzo[b]quinolizin-2-one], the IC50 at GPR84 and in the test on human neutrophils (setting [1]) was 0.01 to 100 nM throughout.

On to `Cc1c2n(c(OC[C@@H]3COCCO3)cc1=O)CCc1cc(OCc3cccc(OC(F)(F)F)c3)ccc1-2` [Compound 32, 4-[[(2S)-1,4-dioxan-2-yl]methoxy]-1-methyl-9-[[3-(trifluoromethoxy)phenyl]methoxy]-6,7-dihydrobenzo[a]quinolizin-2-one], for which the IC50 at GPR84 and in the test on human neutrophils (setting [1]) was 0.01 to 100 nM in each case.

In the case of `Cc1c2n(c(OC[C@@H]3COCCO3)cc1=O)CCc1cc(OCc3ccccc3)ccc1-2` [Compound 33, 9-benzyloxy-4-[[(2S)-1,4-dioxan-2-yl]methoxy]-1-methyl-6,7-dihydrobenzo[a]quinolizin-2-one], the IC50 at GPR84 and with human neutrophils (setting [1]) was 0.01 to 100 nM in each case.

`Cc1c2n(c(NC[C@@H]3COCCO3)cc1=O)CCc1cc(OCC(F)F)ccc1-2` [Compound 35, 9-(2,2-difluoroethoxy)-4-[[(2R)-1,4-dioxan-2-yl]methylamino]-1-methyl-6,7-dihydrobenzo[b]quinolizin-2-one]: the IC50 at GPR84 fell in the range of 100 to 500 nM; with human neutrophils (setting [1]) it was 0.01 to 100 nM.

Consider `Cc1c2n(c(NC[C@@H]3COCCO3)cc1=O)CCc1cc(OCC(F)(F)F)ccc1-2` [Compound 36, 4-[[(2R)-1,4-dioxan-2-yl]methylamino]-1-mehtyl-9-(2,2,2-trifluoroethoxy)-6,7-dihydrobenzo[a]quinolizin-2-one], for which the IC50 was 0.01 to 100 nM at GPR84 and 100 to 500 nM in the test on human neutrophils (setting [1]).

For the compound `Cc1c2n(c(OC[C@@H]3COCCO3)cc1=O)CCc1cc(OS(=O)(=O)C(F)(F)F)ccc1-2` [Compound 37, [4-[[(2S)-1,4-dioxan-2-yl]methoxy]-1-methyl-2-oxo-6,7-dihydrobenzo[a]quinolizin-9-yl] trifluoromethanesulfonate], the IC50 on GPR84 and in the test with human neutrophils (setting [1]) was 0.01 to 100 nM throughout.

Regarding `Cc1c2n(c(OC[C@@H]3COCCO3)cc1=O)CCc1cc(OCc3cnn(C)c3)ccc1-2` [Compound 38, 4-[[(2S)-1,4-dioxan-2-yl]methoxy]-1-methyl-9-[(1-methylpyrazol-4-yl)methoxy]-6,7-dihydrobenzo[a]quinolizin-2-one], the results for the IC50 on GPR84 and with human neutrophils (setting [1]) were 0.01 to 100 nM and 100 to 500 nM, respectively.

`Cc1c2n(c(OC[C@@H]3COCCO3)cc1=O)CCc1cc(C3=CCOCC3)ccc1-2` [Compound 39, 9-(3,6-dihydro-2H-pyran-4-yl)-4-[[(2S)-1,4-dioxan-2-yl]methoxy]-1-methyl-6,7-dihydrobenzo[a]quinolizin-2-one]: the IC50 on GPR84 was 100 to 500 nM; in the test on human neutrophils (setting [1]), 0.01 to 100 nM.

In the case of `CCn1cc(-c2ccc3c(c2)CCn2c(OC[C@@H]4COCCO4)cc(=O)c(C)c2-3)cn1` [Compound 40, 4-[[(2S)-1,4-dioxan-2-yl]methoxy]-9-(1-ethylpyrazol-4-yl)-1-methyl-6,7-dihydrobenzo[a]quinolizin-2-one], the IC50 on GPR84 and in the test with human neutrophils (1 h) was 0.01 to 100 nM throughout.

Turning to `Cc1c2n(c(OC[C@@H]3COCCO3)cc1=O)CCc1cc(C3CCOCC3)ccc1-2` [Compound 41, 4-[[(2S)-1,4-dioxan-2-yl]methoxy]-1-methyl-9-tetrahydropyran-4-yl-6,7-dihydrobenzo[a]quinolizin-2-one], the IC50 on GPR84 and with human neutrophils (setting [1]) was 0.01 to 100 nM throughout.

In the case of `Cc1c2n(c(NC[C@@H]3CCCO3)cc1=O)CCc1cc(OCC(F)(F)F)ccc1-2` [Compound 42, 1-methyl-4-[[(2S)-tetrahydrofuran-2-yl]methylamino]-9-(2,2,2-trifluoroethoxy)-6,7-dihydrobenzo[a]quinolizin-2-one], the IC50 on GPR84 and in the test with human neutrophils (setting [1]) was 0.01 to 100 nM each time.

Turning to `Cc1noc(COc2ccc3c(c2)CCn2c(OCC4CCCO4)cc(=O)c(C)c2-3)n1` (stereo not drawn) [Compound 43, 1-methyl-9-[(3-methyl-1,2,4-oxadiazol-5-yl)methoxy]-4-(tetrahydrofuran-2-ylmethoxy)-6,7-dihydrobenzo[a]quinolizin-2-one], the IC50 at GPR84 and in the test on human neutrophils (setting [1]) was 0.01 to 100 nM in each case.

As to `Cc1noc(COc2ccc3c(c2)CCn2c(OCC4CCCCO4)cc(=O)c(C)c2-3)n1` (stereo not drawn) [Compound 44, 1-methyl-9-[(3-methyl-1,2,4-oxadiazol-5-yl)methoxy]-4-(tetrahydropyran-2-ylmethoxy)-6,7-dihydrobenzo[a]quinolizin-2-one], the IC50 on GPR84 and with human neutrophils (setting [1]) was 0.01 to 100 nM each time.

On to `Cc1c2n(c(OCC3CCCO3)cc1=O)CCc1cc(OCc3ccccn3)ccc1-2` (stereo not drawn) [Compound 45, 1-methyl-9-(2-pyridylmethoxy)-4-(tetrahydrofuran-2-ylmethoxy)-6,7-dihydrobenzo[a]quinolizin-2-one], for which the IC50 at GPR84 lay within 0.01 to 100 nM; in the test on human neutrophils (setting [1]), 100 to 500 nM.

As to `Cc1c2n(c(OCC3CCCCO3)cc1=O)CCc1cc(OCc3ccccn3)ccc1-2` (stereo not drawn) [Compound 46, 1-methyl-9-(2-pyridylmethoxy)-4-(tetrahydropyran-2-ylmethoxy)-6,7-dihydrobenzo[a]quinolizin-2-one], the IC50 at GPR84 and in the test on human neutrophils (setting [1]) was 0.01 to 100 nM throughout.

In the case of `Cc1c2n(c(OCC3CCCCO3)cc1=O)CCc1cc(OCC3CCCOC3)ccc1-2` (stereo not drawn) [Compound 48, 1-methyl-4-(tetrahydropyran-2-ylmethoxy)-9-(tetrahydropyran-3-ylmethoxy)-6,7-dihydrobenzo[a]quinolizin-2-one], the IC50 at GPR84 and in the test with human neutrophils (setting [1]) was 0.01 to 100 nM throughout.

`Cc1c2n(c(OC[C@@H]3COCCO3)cc1=O)CCc1cc(OCC3CCCOC3)ccc1-2` (stereo partly drawn) [Compound 49, 4-[[(2S)-1,4-dioxan-2-yl]methoxy]-1-methyl-9-(tetrahydropyran-3-ylmethoxy)-6,7-dihydrobenzo[a]quinolizin-2-one]: the IC50 on GPR84 and with human neutrophils (setting [1]) was 0.01 to 100 nM throughout.

With `Cc1ccc(COc2ccc3c(c2)CCn2c(OCC4CCCO4)cc(=O)c(C)c2-3)cn1` (stereo not drawn) [Compound 50, 1-methyl-9-[(6-methyl-3-pyridyl)methoxy]-4-(tetrahydrofuran-2-ylmethoxy)-6,7-dihydrobenzo[a]quinolizin-2-one], the IC50 on GPR84 and in the test on human neutrophils (setting [1]) was 0.01 to 100 nM throughout.

For the compound `Cc1ccc(COc2ccc3c(c2)CCn2c(OCC4CCCCO4)cc(=O)c(C)c2-3)cn1` (stereo not drawn) [Compound 51, 1-methyl-9-[(6-methyl-3-pyridyl)methoxy]-4-(tetrahydropyran-2-ylmethoxy)-6,7-dihydrobenzo[a]quinolizin-2-one], the IC50 on GPR84 and with human neutrophils (setting [1]) was 0.01 to 100 nM each time.

Consider `Cc1noc(COc2ccc3c(c2)CCn2c(OC[C@@H]4COCCO4)cc(=O)c(C)c2-3)n1` [Compound 58, 4-[[(2S)-1,4-dioxan-2-yl]methoxy]-1-methyl-9-[(3-methyl-1,2,4-oxadiazol-5-yl)methoxy]-6,7-dihydrobenzo[a]quinolizin-2-one], for which the IC50 on GPR84 and with human neutrophils (setting [1]) was 0.01 to 100 nM each time.

As to `Cc1c2n(c(OC[C@@H]3COCCO3)cc1=O)CCc1cc(OCC(F)F)ccc1-2` [Compound 61, 9-(2,2-difluoroethoxy)-4-[[(2S)-1,4-dioxan-2-yl]methoxy]-1-methyl-6,7-dihydrobenzo[a]quinolizin-2-one], the IC50 at GPR84 and in the test with human neutrophils (setting [1]) was 0.01 to 100 nM throughout.

For the compound `Cc1c2n(c(OC[C@@H]3COCCO3)cc1=O)CCc1cc(N3CCOCC3)ccc1-2` [Compound 63, 4-[[(2S)-1,4-dioxan-2-yl]methoxy]-1-methyl-9-morpholino-6,7-dihydrobenzo[a]quinolizin-2-one], the IC50 at GPR84 is 0.01 to 100 nM; in the test with human neutrophils (setting [1]), 100 to 500 nM.
